One data set concerns the target NMDA receptor. In words: Competition binding, [^3 H]CGP 39653, mouse cortical membranes. The following applies: for Effect on binding of [^3 H]CGP 39653: 0.01 to 100 uM. As to the method:
(§1) Affinity of selected reference drugs for the NMDA receptor
(§2) labeled with [^3 H]CGP 39653 and the PCP receptor
(§3) labeled with [^3 H]MK-801, relatively to the effect of
(§4) NOS inhibitors, in mouse cortical membranes.
(§5) Competition binding assays were carried out using 14 nM [^3 H]CGP 39653 and 2 nM [^3 H]MK-801. L-NAME and NO-Arg at a concentration range of 0.01 to 100 uM, each, had no effect (N.E.) on the binding of the two tritium labeled ligands. Data represents the mean ±S.D. of three experiments.

Another data set concerns the target PCP receptor. Put plainly: Competition binding, [^3 H]MK-801, mouse cortical membranes. To be noted: for [^3 H]MK-801 Ki / Ki: 2 nM [^3 H]MK-801, mouse cortical membranes, mean ± S.D. of three experiments, N.E. = no effect at 0.01 to 100 uM; for Effect on binding of [^3 H]MK-801: 0.01 to 100 uM. On the procedure: as §1, §2, §3, §4, §5
The subject of data set [1] is cocaine induced seizures and lethality in Swiss-Webster mice. In words: Effect of repeated cocaine administration on convulsive response and survival of mice pretreated with saline or NOS inhibitor. Type of data set: in vivo. To be noted: for Protection against development of convulsions / Protection against lethal effects of cocaine: 60 min before cocaine 45 mg/kg/day, 7 days; for Convulsions (number of animals that seized) / Convulsions (percentage) / Survival (number of animals that survived) / Survival (percentage): saline or L-NAME (100 mg/kg) 60 min before cocaine 45 mg/kg i.p. daily. The source says: In the search for safer agents that may be useful in treating cocaine induced toxicity, Applicant has discovered that drugs that block the enzyme nitric oxide (NO) synthase completely abolish cocaine induced seizures and lethality in mice (see TABLE 1). NO synthase inhibitors such as N-nitro-L-arginine methyl ester (L-NAME) and N-nitro-L-arginine (NO-Arg) are known drugs used clinically for the treatment of septic shock. […] Thus, it is though that NO, a putative neurotransmitter in the brain, is involved in DA-receptor mediated neurotoxicity. Applicant's recent studies are the first to document that NOS inhibitors have protective effects against cocaine induced toxicity. FIG. 1 and FIG. 2. Briefly, Swiss-Webster mice were pretreated with either saline, L-NAME (100 mg/kg/day) or NO-Arg (25 mg/kg/day) 60 min before the administration of cocaine (45 mg/kg/day) for 7 days. The progressive increase in the adverse and toxic effects of repetitive cocaine was manifested by an increase in the convulsive and lethal responses to cocaine. Following the 7th day of saline/cocaine treatment only 60% of the animals survived, and 100% of the animals seized.
Effect of repeated cocaine administration on convulsive
response and survival of Swiss-Webster mice pretreated with
either saline or L-NAME. Mice received a Single i.p.
injection of cocaine (45 mg/kg) each day 60 min after
pretreatment with either saline or L-NAME (100 mg/kg). Data
is expressed as the total number of animals that seized
and survived following the drugs treatment in three separate
experiments. Numbers in parentheses indicate percentage.

Setting [2] is: 14 nM [^3 H]CGP 39653, mouse cortical membranes, mean ± S.D. of three experiments, N.E. = no effect at 0.01 to 100 uM.

“And” between values parts separate entries of the source, which are not always exact repeats. Identical values can stand only once.

For `NC(CCCP(=O)(O)O)C(=O)O` (stereo not drawn) [AP-5], the Ki at NMDA receptor (setting [2]) was 2230 ± 180 nM.
Turning to `COC(=O)[C@@H](N)CCCN=C(N)N[N+](=O)[O-]` [L-NAME, N-nitro-L-arginine methyl ester], the “[^3 H]MK-801 Ki” value on PCP receptor was “N.E”. Further, the “Effect on binding of [^3 H]MK-801” value in the data set with PCP receptor is on record as “no effect”. In addition, the “Protection against development of convulsions” value in data set [1] (L-NAME 100 mg/kg/day) is “completely protected”. Further, the “Protection against lethal effects of cocaine” value in data set [1] (L-NAME 100 mg/kg/day) is reported as “completely protected”. The “Convulsions (number of animals that seized)” value in data set [1] (day 1) is recorded as 0/30; in data set [1] (day 2), 1/30; in data set [1] (day 3), 2/30; in data set [1] (day 4) it was 0/30; in data set [1] (day 5), 1/30; in data set [1] (day 6) it was 1/30. Further, the “Convulsions (number of animals that seized)” value in data set [1] (day 7) was 0/30. Also, the “Convulsions (percentage)” value in data set [1] (day 1) was determined as 0%; in data set [1] (day 2) it was 3%; in data set [1] (day 3), 6%; in data set [1] (day 4), 0%; in data set [1] (day 5) it was 3%; in data set [1] (day 6), 3%. The “Convulsions (percentage)” value in data set [1] (day 7) is given as 0%. The “Survival (number of animals that survived)” value in data set [1] (day 1), in data set [1] (day 2), in data set [1] (day 3), in data set [1] (day 4), in data set [1] (day 5) and in data set [1] (day 6) was 30/30 throughout. Also, the “Survival (number of animals that survived)” value in data set [1] (day 7) is recorded as 30/30. Further, the “Survival (percentage)” value in data set [1] (day 1), in data set [1] (day 2), in data set [1] (day 3), in data set [1] (day 4), in data set [1] (day 5) and in data set [1] (day 6) was 100% throughout. Also, the “Survival (percentage)” value in data set [1] (day 7) came out at 100%. Further, the “[^3 H]CGP 39653 Ki” value on NMDA receptor (setting [2]) is “N.E”. The “Effect on binding of [^3 H]CGP 39653” value with NMDA receptor is recorded as “no effect”.
Compound `C[C@]12N[C@H](Cc3ccccc31)c1ccccc12` [MK-801] had an inhibition constant Ki at PCP receptor of 3 ± 0.2 nM.
`NC(=NCCC[C@H](N)C(=O)O)N[N+](=O)[O-]` [NO-Arg, N-nitro-L-arginine]: at PCP receptor, the “[^3 H]MK-801 Ki” value is listed as “N.E” and the “Effect on binding of [^3 H]MK-801” value was “no effect”. Also, in data set [1] (NO-Arg 25 mg/kg/day), the “Protection against development of convulsions” value was “completely protected” and the “Protection against lethal effects of cocaine” value is recorded as “completely protected”. Besides, the “[^3 H]CGP 39653 Ki” value at NMDA receptor (setting [2]) is “N.E”. For the same compound, in the data set on NMDA receptor, the “Effect on binding of [^3 H]CGP 39653” value is on record as “no effect”.
On to `c1ccc(C2(N3CCCCC3)CCCCC2)cc1` [PCP], for which the affinity at PCP receptor corresponds to a Ki of 55 ± 4 nM.
For the compound `COC(=O)[C@H]1[C@@H](OC(=O)c2ccccc2)C[C@@H]2CC[C@H]1N2C` [cocaine], the “Convulsions had occurred (in words)” value in data set [1] (by the seventh day, uniform daily doses of cocaine) was “in all animals”. The “Convulsions (number of animals that seized)” value in data set [1] (day 1) was 4/36; in data set [1] (day 2), 14/36; in data set [1] (day 3), 20/36; in data set [1] (day 4), 22/34; in data set [1] (day 5), 24/33; in data set [1] (day 6) it was 26/27. Also, the “Convulsions (number of animals that seized)” value in data set [1] (day 7) is listed as 22/22. Further, the “Convulsions (percentage)” value was 11% in data set [1] (day 1); 38% in data set [1] (day 2); 55% in data set [1] (day 3); 65% in data set [1] (day 4); 72% in data set [1] (day 5); 96% in data set [1] (day 6). The “Convulsions (percentage)” value in data set [1] (day 7) worked out at 100%. In addition, the “Survival (number of animals that survived)” value in data set [1] (day 1) is listed as 36/36; in data set [1] (day 2), 36/36; in data set [1] (day 3) it was 36/36; in data set [1] (day 4) it was 34/36; in data set [1] (day 5), 33/36; in data set [1] (day 6) it was 27/36. Moreover, the “Survival (number of animals that survived)” value in data set [1] (day 7) is recorded as 22/36. In addition, the “Survival (percentage)” value came to 100% in data set [1] (day 1); 100% in data set [1] (day 2); 100% in data set [1] (day 3); 94% in data set [1] (day 4); 91% in data set [1] (day 5); 75% in data set [1] (day 6). The “Survival (percentage)” value in data set [1] (day 7) is 60% and 61%.
